Assay results: US3950517A, “Insulin derivatives” (National Research Development Corporation, priority 1970, dated 1976)

How the values were obtained:
Mouse = Mouse convulsion assay (British Pharmacopoeia, 1968) against neutral insulin standard; type: in vivo; conditions: Table 1; percentage basis relative to insulin
From the text: (§1) In most cases the new derivatives have an initial bloor sugar lowering effect which is virtually indistinguishable from insulin itself. In contrast the derivatives have less than about 50% of the immunoreactivity of the parent insulin as determined by radioimmunoassay. In many cases the reduction in immunoreactivity (reactivity towards specific insulin antibody) is as low as 30% or even 10% of that of the parent hormone. The figures are expressed on a percentage basis relative to insulin.
The insulin derivatives were separated from trace amounts of urea and salt by elution from a Sephadex G.10 column (2.5 × 60 cm.) equilibrated with 5% aqueous acid and the protein, after lyophilisation, was dried over phosphorous pentoxide at room temperature for 2 days. The derivatives were assayed against a neutral insulin solution (Nuso insulin batch A 354) as standard by the Mouse Convulsion method (British Pharmacopoeia, 1968). All injections were of solutions in acetate buffer, pH 8.0.

[1] = system: specific insulin antibody; assay: Radioimmunoassay of immunoreactivity (reactivity towards specific insulin antibody); type: binding; conditions: percentage basis relative to insulin; for Radioimmunoassay Immunoreactivity: Table 1; for Immunoreactivity: Table 2
From the text: as §1

blood sugar = assay: Blood sugar lowering activity by intravenous injection into laboratory animals; type: in vivo; conditions: Table 2; percentage basis relative to insulin
From the text: as §1

Row | Substance | Mouse convulsion assay Mean potency (Mouse) [%] | Radioimmunoassay Immunoreactivity [1] [%] | Immunoreactivity [1] [%] | Blood sugar lowering (blood sugar) [%]
1 | Phe^B1 -monosubstituted insulins (c) Thiazolidine (bovine): Bovine insulin acylated at B1 phenylalanine with 2,2-dimethyl-3-formyl-L-thiazolidine-4-carboxylic acid | 103 | 27 |  | 
2 | Phe^B1 -monosubstituted insulins (b) Acetoacetyl (bovine): Bovine insulin acetoacetylated (diketen) at the B1 phenylalanine amino group | 109 | 8.6 |  | 
3 | Gly^A1 -monosubstituted insulin (b) methylthiocarbamyl: Insulin methylthiocarbamylated at A1 glycine |  |  | 92 | 100
4 | Crystalline bovine insulin: Parent bovine insulin, reference set to 100 [reference compound] | 100 | 100 | 100 | 100
5 | Phe^B1 -Gly^A1 -disubstituted insulins (b) methylthiocarbamyl: Insulin methylthiocarbamylated at A1 and B1 |  |  | 20 | 100
6 | Phe^B1 acetyl insulin | 100 | 30 |  | 
7 | Lys^B29 acetyl insulin | 114 | 83 |  | 
8 | Gly^A1 Lys^B29 -diacetyl insulin | 93 | 67 |  | 
9 | Gly^A1 -monosubstituted insulin (a) carbamyl: Insulin carbamylated at A1 glycine |  |  |  | 100
10 | A1, B1, B29 -triacetyl-insulin | 96 | 10 |  | 
11 | Gly^A1 -monosubstituted insulins (b) Acetoacetyl (bovine): Bovine insulin acetoacetylated at the A1 glycine amino group | 88 | 87 |  | 
12 | Phe^B1 Gly^A1 -diacetyl insulin | 90 | 25 |  | 
13 | (Carbamyl-Gly)A1 -(Carbamyl-Phe)B1 -(Carbamyl-Lys)B29 -insulin |  |  | 9 | 100
14 | Phe^B1, Gly^A1, Lys^B29 -trisubstituted insulins (b) Acetoacetyl (bovine): Bovine insulin acetoacetylated at A1, B1 and B29 | 77 | 17 |  | 
15 | Gly^A1 -monosubstituted insulins (a) Acetyl (bovine): Bovine insulin acetylated at the A1 glycine amino group | 105 | 71 |  | 
16 | Lys^B29 -monosubstituted insulins (b) Thiazolidine (bovine): Bovine insulin acylated at B29 lysine with 2,2-dimethyl-3-formyl-L-thiazolidine-4-carboxylic acid | 101 | 84 |  | 
17 | Phe^B1, Gly^A1 -disubstituted insulins (b) Acetoacetyl (bovine): Bovine insulin acetoacetylated at B1 and A1 | 76 | 14 |  | 
18 | Gly^A1 -monosubstituted insulins (c) Thiazolidine (bovine): Bovine insulin acylated at A1 glycine with 2,2-dimethyl-3-formyl-L-thiazolidine-4-carboxylic acid | 57 | 81 |  | 
19 | (Carbamyl-Gly)A1 -(Carbamyl-Phe)B1 -insulin |  |  | 10 | 100
20 | (Carbamyl-Phe)B1 -insulin |  |  | 23 | 100
